#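 Cells were grown in 96-well plates and exposed to each compound for 48 hours at five concentrations; endpoints were interpolated linearly between bracketing concentrations, or set to the highest concentration if not reached. GI50 marks 50% less growth.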 The source made the active and inactive calls. Cut-off read from the data, not from the text of the source: active = GI50 up to about 1.1 µM and inactive = higher.
# How the values were obtained:
# Test in all cases: DTP human tumour cell line panel, 48 h
# [1] = test system: ACHN
# [2] = test system: COLO 205
# [3] = test system: HCT-116
# [4] = test system: IGROV-1
# [5] = test system: K562
# [6] = test system: KM12
# [7] = test system: LXFL 529
# [8] = test system: Malme-3M
# [9] = test system: OVCAR-4
# [10] = test system: OVCAR-5
# [11] = test system: SF-268
# [12] = test system: SR
# [13] = test system: SW-620
# [14] = test system: TK-10
# [15] = test system: HL-60
# [16] = test system: HOP-92
# [17] = test system: SK-OV-3
# [18] = test system: BT-549
# [19] = test system: Hs-578T
# [20] = test system: PC-3
Compound,GI50 [1],GI50 [2],GI50 [3],GI50 [4],GI50 [5],GI50 [6],GI50 [7],GI50 [8],GI50 [9],GI50 [10],GI50 [11],GI50 [12],GI50 [13],GI50 [14],GI50 [15],GI50 [16],GI50 [17],GI50 [18],GI50 [19],GI50 [20]
O=C(c1ccccc1)c1nc2ccc(Cl)cc2c2c1Cc1ccccc1-2,> 100 µM (inactive),> 100 µM (inactive),> 100 µM (inactive),> 100 µM (inactive),> 100 µM (inactive),> 100 µM (inactive),> 100 µM (inactive),> 100 µM (inactive),> 100 µM (inactive),> 100 µM (inactive),> 100 µM (inactive),> 100 µM (inactive),> 100 µM (inactive),> 100 µM (inactive),,,,,,
Cc1cc(Cl)ccc1NC(=O)CCCC(=O)C1C/C(=N/O)CC/C1=N\O (stereo not given),> 100 µM (inactive),> 100 µM (inactive),> 100 µM (inactive),> 100 µM (inactive),> 100 µM (inactive),> 100 µM (inactive),> 100 µM (inactive),> 100 µM (inactive),> 100 µM (inactive),> 100 µM (inactive),> 100 µM (inactive),,> 100 µM (inactive),> 100 µM (inactive),> 100 µM (inactive),> 100 µM (inactive),> 100 µM (inactive),,,
Cc1ccccc1-n1c(CCl)nc2ccc(Br)cc2c1=O,30.1 µM (inactive),13.4 µM (inactive),9.53 µM (inactive),14.3 µM (inactive),0.354 µM (active),13.6 µM (inactive),0.887 µM (active),17.3 µM (inactive),14.8 µM (inactive),24.4 µM (inactive),3.21 µM (inactive),3.73 µM (inactive),3.13 µM (inactive),24.7 µM (inactive),5.77 µM (inactive),12.8 µM (inactive),29.5 µM (inactive),,,
COc1ccc2nc3cc(Cl)ccc3c(NCCC[N+](C)(C)CCCCCCCCCCCCCCCC[N+](C)(C)CCCNc3c4ccc(Cl)cc4nc4ccc(OC)cc34)c2c1,6.22 µM (inactive),1.83 µM (inactive),1.75 µM (inactive),2.7 µM (inactive),1.85 µM (inactive),1.64 µM (inactive),1.79 µM (inactive),2.24 µM (inactive),2.44 µM (inactive),2.92 µM (inactive),2.11 µM (inactive),,1.96 µM (inactive),4.22 µM (inactive),1.69 µM (inactive),,4.33 µM (inactive),,,
COc1ccccc1NC(=O)NS(=O)(=O)c1ccccc1,58.3 µM (inactive),> 100 µM (inactive),> 100 µM (inactive),,,> 100 µM (inactive),> 100 µM (inactive),> 100 µM (inactive),> 100 µM (inactive),> 100 µM (inactive),> 100 µM (inactive),,> 100 µM (inactive),> 100 µM (inactive),> 100 µM (inactive),> 100 µM (inactive),,,,
COc1ccc2c(c1)[n+]([O-])c(/C(C)=N/NC(=O)c1ccccc1O)c(C)[n+]2[O-],> 100 µM (inactive),,> 100 µM (inactive),> 100 µM (inactive),> 100 µM (inactive),> 100 µM (inactive),> 100 µM (inactive),> 100 µM (inactive),> 100 µM (inactive),> 100 µM (inactive),> 100 µM (inactive),,> 100 µM (inactive),> 100 µM (inactive),> 100 µM (inactive),> 100 µM (inactive),> 100 µM (inactive),,,
CCCCCN1C(=O)C(Cc2ccccc2)N=C(c2ccc(O)cc2)c2cc(Cl)ccc21 (stereo not given),13 µM (inactive),2.96 µM (inactive),7.94 µM (inactive),6.73 µM (inactive),3.23 µM (inactive),10.1 µM (inactive),,7.57 µM (inactive),7.73 µM (inactive),22.3 µM (inactive),8.73 µM (inactive),2.97 µM (inactive),10.9 µM (inactive),12.9 µM (inactive),2.98 µM (inactive),10.7 µM (inactive),18.6 µM (inactive),17.4 µM (inactive),7.53 µM (inactive),6.21 µM (inactive)
CCOC(=O)C1C(c2ccc(Cl)cc2Cl)NC(c2ccc(C)cc2)C(C(=O)OC)S1(=O)=O (stereo not given),80.4 µM (inactive),> 100 µM (inactive),,> 100 µM (inactive),13.3 µM (inactive),> 100 µM (inactive),54.6 µM (inactive),> 100 µM (inactive),> 100 µM (inactive),> 100 µM (inactive),72.9 µM (inactive),69 µM (inactive),> 100 µM (inactive),> 100 µM (inactive),55.8 µM (inactive),12 µM (inactive),> 100 µM (inactive),,,
